Usually GI50 stands for the concentration giving 50% growth inhibition.

For assay [1], the system named is DLD1. In words: MTT cytotoxicity test (GI50). Type of assay: cell-based. The note with it: Homo sapiens, DLD-1; DLD1, cancer, colon; MTT 72 h.
The target in assay [2] is T1, Arsenite methyltransferase (Homo sapiens, UniProt Q9HBK9).
T1 construct: After collecting data covering >8,000 proteins in lysates of normal BJ cells; endogenous in cells; host or cells: normal BJ cells, lysate
In words: MS-CETSA in normal BJ cell lysates. The format is binding. Particulars: lysate, 100 μM compound.
Method: (§3) Target identification was performed by cellular thermal shift assay (CETSA) coupled with quantitative mass spectrometry. In brief, normal BJ cells were lysed by combination of freeze/thaw and mechanical shearing with needle in buffer [50 mM HEPES (pH 7.5), 5 mM β-glycerophosphate, 0.1 mM Sodium Vanadate, 10 mM MgCl2, 1 mM TCEP and 1× Protease inhibitor Cocktail]. The cell debris was removed by centrifugation at 20,000 g for 20 min at 4° C. […] Each lysate was divided into 10 aliquots for heat treatment at the respective temperatures for 3 min in a 96-well thermocycler, followed by 3 min at 4° C. The lysate was centrifuged at 20,000 g for 20 min at 4° C. and the supernatant was transferred into microtubes for MS sample preparation.
(§4) After lysis, at least 100 μg of the protein (measured with a BCA assay) was subjected to reduction, denaturation and alkylation. Samples were subsequently incubated with sequencing grade LysC (Wako) and trypsin (Promega) for digestion overnight at 37° C. The digested samples were dried using a centrifugal vacuum evaporator, solubilized in 100 mM TEAB. […]
(§5) Proteins for which a low temperature plateau was not present were deleted using a cut off >0.85 for the average reading of the first three temperature points (in our experience proteins melting already at −37° C. are more prone to give false positives in a shift analysis).

The test system of assay [3] is PIK3IP1. In words: qRT-PCR and immunoblot of PIK3IP1 in BJ cells. The format is cell-based, human. The note with it: 5 μM, 24 h. On the procedure:
Total RNA was isolated from cultured cells using the RNeasy mini kit (Qiagen). cDNA was synthesized from 1 μg of total RNA using the iScript cDNA synthesis kit (Bio-Rad). qRT-PCR analysis was performed using the iQ SYBR Green Super mix (Bio-Rad) using the following gene-specific primers:
human PI5P4Kα (5′-[…]-3′; SEQ ID NO: 11, 5′-[…]-3′; SEQ ID NO: 12), human PI5P4Kβ (5′-[…]-3′; SEQ ID NO: 13, 5′-[…]-3′; SEQ ID NO: 14), human PI5P4Kγ (5′-[…]-3′; SEQ ID NO: 15, 5′-[…]-3′; SEQ ID NO: 16) and human PIK3IP1 (5′-[…]-3′; SEQ ID NO: 17, 5′-[…]-3′; SEQ ID NO: 18). The TATA-binding protein (TBP) gene was used for normalization. All PCR reactions were performed in triplicate.
Total cell lysates were prepared with 1% triton lysis buffer [25 mM Tris HCl (pH 8.0), 150 mM NaCl, 1% triton-X100, 1 mM dithiothreitol (DTT), protease inhibitor mix (Complete Mini, Roche) and phosphatase inhibitor (PhosphoStop, Roche)] and subjected to SDS-PAGE. […] Where indicated, intensities of protein bands were quantified by densitometry (Odyssey V3.0), normalized to their loading controls and then calculated as fold expression change relative to DMSO control.
(In general: Quantitative PCR measures a nucleic acid by following its amplification.)

In assay [4] the test system is NUGC3. In words: MTT cytotoxicity test (GI50). Type of assay: cell-based. The note with it: Homo sapiens, NUGC-3; NUGC3, cancer, gastric; MTT 72 h. (Formazan colour is commonly taken as a measure of viable cells.)
Assay [5] deals with BJ normal. In words: MTT cytotoxicity test (GI50). The note with it: Homo sapiens, skin, MTT 72 h. Type of assay: cell-based.
Assay [6] concerns the target T2, Delta(3,5)-Delta(2,4)-dienoyl-CoA isomerase, mitochondrial (Homo sapiens, UniProt Q13011).
T2 construct: After collecting data covering >8,000 proteins in lysates of normal BJ cells; endogenous in cells; host or cells: normal BJ cells, lysate
In words: MS-CETSA in normal BJ cell lysates. The note with it: lysate, 100 μM compound. Type of assay: binding.
Method: as §3, §4, §5

The test system of assay [7] is WI38. In words: MTT cytotoxicity test (GI50). The note with it: Homo sapiens, WI-38; WI38, normal, lung; MTT 72 h. Type of assay: cell-based.
The test system of assay [8] is HT29. In words: MTT cytotoxicity test (GI50). The format is cell-based. Particulars: Homo sapiens, HT-29; HT29, cancer, colon; MTT 72 h.
Assay [9] concerns SNU-16. In words: MTT cytotoxicity test (GI50). Type of assay: cell-based. Particulars: Homo sapiens; SNU-16, cancer, gastric; MTT 72 h.
Assay [10] has as its target T3, Liprin-beta-1 (Homo sapiens, UniProt Q86W92).
T3 construct: After collecting data covering >8,000 proteins in lysates of normal BJ cells; endogenous in cells; host or cells: normal BJ cells, lysate
In words: MS-CETSA in normal BJ cell lysates. The format is binding. The note with it: lysate, 100 μM compound.
Method: as §3, §4, §5

The subject of assay [11] is HCT15. In words: MTT cytotoxicity test (GI50). Type of assay: cell-based. The note with it: Homo sapiens, HCT-15; HCT15, cancer, colon; MTT 72 h.
Assay [12] relates to PI3K/Akt/mTOR pathway. In words: Immunoblot of phosphorylated Akt and p70S6K. The format is cell-based, human. The note with it: normal versus transformed BJ cells, 24 h. How it is done: (§1) Total cell lysates were prepared with 1% triton lysis buffer [25 mM Tris HCl (pH 8.0), 150 mM NaCl, 1% triton-X100, 1 mM dithiothreitol (DTT), protease inhibitor mix (Complete Mini, Roche) and phosphatase inhibitor (PhosphoStop, Roche)] and subjected to SDS-PAGE. The following antibodies were used for immunoblotting: anti-β-actin (Sigma-Aldrich), anti-cleaved PARP (Abcam, #ab32064), anti-PI5P4Kα (#5527), anti-PI5P4Kβ (#9694), anti-cleaved caspase-3 (#9664), anti-pHistone H3(Ser10) (#3377), anti-pAkt(S473) (#9271), anti-pAkt(T308) (#13038), anti-total Akt (#9272), anti-p70S6K(T389) (#9234), anti-total p70S6K (#9202), anti-pErk (#4370), anti-γ-Histone H2AX (#9718) (Cell signaling) and anti-PIK3IP1 (Proteintech, #16826-1-AP). The secondary antibodies used were sheep anti-mouse IgG HRP and donkey anti-rabbit IgG HRP (Amersham; 1:2000 dilution). Immunoreactive proteins were visualized using ECL reagent (Amersham). Where indicated, intensities of protein bands were quantified by densitometry (Odyssey V3.0), normalized to their loading controls and then calculated as fold expression change relative to DMSO control.
(In general: In western blotting, separated proteins are transferred to a membrane and probed.)

Assay [13] deals with T4, Isoform 3 of Cleavage and polyadenylation specificity factor subunit 7 (Homo sapiens, UniProt Q8N684).
T4 construct: After collecting data covering >8,000 proteins in lysates of normal BJ cells; endogenous in cells; host or cells: normal BJ cells, lysate
T4 sequence (Q8N684 1-514 isoform Q8N684-3): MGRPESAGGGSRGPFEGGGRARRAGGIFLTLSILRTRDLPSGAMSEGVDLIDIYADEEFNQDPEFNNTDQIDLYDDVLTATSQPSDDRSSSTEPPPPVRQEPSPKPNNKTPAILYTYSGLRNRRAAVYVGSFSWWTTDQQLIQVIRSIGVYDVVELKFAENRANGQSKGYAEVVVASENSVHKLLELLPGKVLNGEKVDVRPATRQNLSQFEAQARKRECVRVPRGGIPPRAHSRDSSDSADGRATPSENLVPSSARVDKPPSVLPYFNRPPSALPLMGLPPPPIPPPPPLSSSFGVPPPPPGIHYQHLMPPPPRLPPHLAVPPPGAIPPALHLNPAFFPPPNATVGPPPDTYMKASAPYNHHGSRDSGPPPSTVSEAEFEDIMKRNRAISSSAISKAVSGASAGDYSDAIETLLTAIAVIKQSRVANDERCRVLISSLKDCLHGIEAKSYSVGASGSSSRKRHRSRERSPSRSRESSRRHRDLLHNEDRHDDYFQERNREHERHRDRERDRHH
In words: MS-CETSA in normal BJ cell lysates. Particulars: Uniprot Q8N684-3, lysate, 100 μM compound. Type of assay: binding.
Method: as §3, §4, §5

The test system of assay [14] is cancer cell lines. In words: FACS of subG1 (PI) and Annexin V in cancer and normal cell lines. Type of assay: cell-based, human. The note with it: 2.5 μM and 5 μM, 48 h. How it is done:
(§2) Cell death was assessed via Annexin V and/or PI (propidium iodide) staining according to the manufacturer's instructions (eBioscience). Cell growth arrest was assessed by direct measurement of DNA synthesis through incorporation of the nucleoside analog bromodeoxyuridine (BrdU). Briefly, BrdU (30 μM, Sigma-Aldrich) was added for 2 h before harvesting cells. Cells were subsequently stained with Pacific Blue-conjugated BrdU antibody (Invitrogen) for 1 h followed by PI staining. Stained cells were analyzed by MACSQuant (MACS). Three independent experiments were performed in triplicate. The percentage of Annexin V/PI- or BrdU-positive cells was quantified using Flow Jo software (Becton Dickinson). Where indicated, the combined activity of caspase-3/7 was determined using the caspase-Glo 3/7 Assay Kit (Promega) and normalized to the number of viable cells as determined by MTT assay.

For assay [15], the system named is Ras/Raf/MEK/ERK pathway. In words: Immunoblot of ERK phosphorylation. Type of assay: cell-based, human. The note with it: normal BJ cells, 24 h. On the procedure: as §1
Assay [16] relates to normal BJ cells with activated H-RasV12-ER. In words: FACS subG1 in engineered BJ-derived fibroblasts. The format is cell-based, human. The note with it: 5 μM, 48 h. How it is done:
Isogenic BJ human foreskin fibroblast cell lines, including non-transformed (normal) and transformed BJ cells and all gastric cancer cell lines, were kind gifts from Dr. Mathijs Voorhoeve and Dr. Patrick Tan (Duke-NUS), respectively and tested for mycoplasma infection. All other human cancer cell lines used in this study were purchased from ATCC and cultured in accordance with ATCC's instructions. H-RasV12-ER was activated by exposing the BJ-derived fibroblasts to 4-OHT (100 nM, Sigma-Aldrich). Three different sets of siRNAs were used in this study to target PI5P4K isoform DNA sequences as follows:
as §2, with “Cells were subsequently stained with Pacific Blue-conjugated BrdU antibody (Invitrogen) for 1 h followed by PI staining.” left out, “Three independent experiments were performed in triplicate.” left out

Assay [17] has as its target T5, Coproporphyrinogen-III oxidase, mitochondrial (Homo sapiens, UniProt P36551).
T5 construct: After collecting data covering >8,000 proteins in lysates of normal BJ cells; endogenous in cells; host or cells: normal BJ cells, lysate
In words: MS-CETSA in normal BJ cell lysates. The format is binding. Particulars: lysate, 100 μM compound.
Method: as §3, §4, §5

T2 sequence (Q13011 34-328): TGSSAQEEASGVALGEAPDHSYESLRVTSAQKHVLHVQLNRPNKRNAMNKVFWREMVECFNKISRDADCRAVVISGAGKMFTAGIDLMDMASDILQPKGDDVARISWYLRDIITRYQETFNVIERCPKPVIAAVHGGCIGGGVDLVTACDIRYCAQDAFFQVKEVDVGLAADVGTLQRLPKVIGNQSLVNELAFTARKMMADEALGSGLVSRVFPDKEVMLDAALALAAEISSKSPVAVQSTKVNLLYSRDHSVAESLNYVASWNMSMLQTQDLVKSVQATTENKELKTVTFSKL
T1 sequence (Q9HBK9 whole entry): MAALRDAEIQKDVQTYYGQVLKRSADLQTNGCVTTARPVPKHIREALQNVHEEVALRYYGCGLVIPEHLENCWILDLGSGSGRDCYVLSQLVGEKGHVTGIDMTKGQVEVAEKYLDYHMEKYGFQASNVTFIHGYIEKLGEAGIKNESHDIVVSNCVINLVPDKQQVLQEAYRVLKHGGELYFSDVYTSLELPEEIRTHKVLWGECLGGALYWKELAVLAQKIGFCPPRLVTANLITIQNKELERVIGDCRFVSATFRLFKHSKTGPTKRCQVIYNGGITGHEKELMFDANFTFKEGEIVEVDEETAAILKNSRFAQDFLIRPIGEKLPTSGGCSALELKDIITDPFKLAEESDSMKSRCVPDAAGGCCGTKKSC
T5 sequence (P36551 111-454): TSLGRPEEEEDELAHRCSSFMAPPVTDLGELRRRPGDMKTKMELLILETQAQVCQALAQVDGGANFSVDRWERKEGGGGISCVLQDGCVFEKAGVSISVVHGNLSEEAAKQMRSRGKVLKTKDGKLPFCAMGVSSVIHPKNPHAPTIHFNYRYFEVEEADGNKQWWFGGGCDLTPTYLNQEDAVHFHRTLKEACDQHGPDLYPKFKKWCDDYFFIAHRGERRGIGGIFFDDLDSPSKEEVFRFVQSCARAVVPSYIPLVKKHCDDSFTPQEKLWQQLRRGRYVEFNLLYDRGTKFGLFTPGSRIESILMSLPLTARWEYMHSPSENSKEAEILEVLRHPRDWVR
T3 sequence (Q86W92 whole entry): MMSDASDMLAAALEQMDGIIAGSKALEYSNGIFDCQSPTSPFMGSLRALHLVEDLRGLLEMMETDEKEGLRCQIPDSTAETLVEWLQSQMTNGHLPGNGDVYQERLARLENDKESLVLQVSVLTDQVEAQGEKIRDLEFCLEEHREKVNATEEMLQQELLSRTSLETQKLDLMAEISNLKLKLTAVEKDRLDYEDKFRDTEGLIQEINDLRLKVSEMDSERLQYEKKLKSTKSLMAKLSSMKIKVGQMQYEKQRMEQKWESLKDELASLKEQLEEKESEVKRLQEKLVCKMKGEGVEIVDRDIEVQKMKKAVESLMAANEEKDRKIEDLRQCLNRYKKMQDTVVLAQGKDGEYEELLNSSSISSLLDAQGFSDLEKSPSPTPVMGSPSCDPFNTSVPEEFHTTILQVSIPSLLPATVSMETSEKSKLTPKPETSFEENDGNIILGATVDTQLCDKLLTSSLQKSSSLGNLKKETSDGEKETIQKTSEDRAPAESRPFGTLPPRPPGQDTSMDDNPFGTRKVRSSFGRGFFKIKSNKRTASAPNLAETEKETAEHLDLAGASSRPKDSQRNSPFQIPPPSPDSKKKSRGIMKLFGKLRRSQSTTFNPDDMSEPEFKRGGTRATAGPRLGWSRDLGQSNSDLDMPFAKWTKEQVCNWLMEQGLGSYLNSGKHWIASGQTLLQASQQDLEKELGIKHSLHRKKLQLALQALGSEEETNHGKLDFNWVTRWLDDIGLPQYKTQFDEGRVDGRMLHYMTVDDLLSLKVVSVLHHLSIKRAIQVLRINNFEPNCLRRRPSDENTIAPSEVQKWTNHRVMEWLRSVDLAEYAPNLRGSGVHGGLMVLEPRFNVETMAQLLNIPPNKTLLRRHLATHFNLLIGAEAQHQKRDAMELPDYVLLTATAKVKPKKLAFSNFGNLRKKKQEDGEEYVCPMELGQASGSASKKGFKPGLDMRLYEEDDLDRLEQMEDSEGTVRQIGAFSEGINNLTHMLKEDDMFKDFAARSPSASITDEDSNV

On to `N#C/C(=C\c1cccc2cnccc12)c1c[nH]c2ccccc12` [a131, (Z)-2-(1H-indol-3-yl)-3-(5-isoquinolyl)prop-2-enenitrile], for which the GI50 in [1] stood at 1.2 µM; in assay [4], 1 µM; in assay [5] it was 8.1 µM; in assay [7] it was 3.4 µM; in assay [8], 0.9 µM; in assay [9], 1 µM. The GI50 in assay [11] is 0.5 µM. For the same compound, the ED score in assay [2] amounted to 0.6214; in assay [6], 0.3541; in assay [10] it was 0.3387; in assay [13] it was 0.3008; in assay [17] it was 0.3274. Besides, the ΔTm at 100 µM in assay [2] (read-out: mean Delta Tm) was determined as 4.88 °C; in assay [6] (read-out: mean Delta Tm), 1.51 °C; in [10] (read-out: mean Delta Tm), 2.07 °C; in assay [17] (read-out: mean Delta Tm), 1.61 °C. Also, the “PIK3IP1 mRNA and protein levels” value in assay [3] (normal BJ cells) was “up-regulation of PIK3IP1 at both the mRNA and protein levels”. For the same compound, the “PIK3IP1 mRNA expression” value in assay [3] (transformed BJ cells) was “unresponsive”. Moreover, the “inhibition of the PI3K/Akt/mTOR pathway” value in assay [12] is “consistently caused inhibition of the PI3K/Akt/mTOR pathway only in normal BJ cells, but not in transformed counterparts”. Moreover, the “mean Delta Tm” value in [13] (in °C (unit assumed)) is 1.653. For the same compound, the “percentage of cells expressing Annexin V versus DMSO” value in assay [14] was “significantly higher (p<0.0001)”. The “percentage of subG1 population versus DMSO” value in [14] (cancer cells) is listed as “significantly higher (p<0.0001)”. The “inhibition of the Ras/Raf/MEK/ERK pathway (ERK phosphorylation)” value in assay [15] was “Neither a131 and a166 treatment nor PI5P4Ks knockdown inhibited”. Besides, in assay [16], the “a131-induced cell death after 4-OHT-induced activation of H-RasV12-ER” value is “sufficient to sensitize normal BJ cells to a131-induced cell death”.

The values above are taken from patent publication US20190350964A1, “ANTI-CANCER COMPOUNDS AND USES THEREOF” (NATIONAL UNIVERSITY OF SINGAPORE, priority 2016, published 2019).
